In the test the target is T1, TAK1 (Homo sapiens, UniProt O43318).
T1 construct: gene MAP3K7
T1 sequence (O43318 1-303): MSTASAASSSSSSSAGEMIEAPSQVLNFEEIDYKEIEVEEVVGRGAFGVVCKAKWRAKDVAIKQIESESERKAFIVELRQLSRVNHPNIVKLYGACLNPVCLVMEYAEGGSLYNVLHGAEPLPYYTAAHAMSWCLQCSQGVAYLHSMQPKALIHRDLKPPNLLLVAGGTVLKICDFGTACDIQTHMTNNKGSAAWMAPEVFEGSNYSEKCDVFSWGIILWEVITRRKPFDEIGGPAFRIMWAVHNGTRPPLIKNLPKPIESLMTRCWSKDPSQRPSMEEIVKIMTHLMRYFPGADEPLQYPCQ
T1 sequence (Q15750 437-504 partner): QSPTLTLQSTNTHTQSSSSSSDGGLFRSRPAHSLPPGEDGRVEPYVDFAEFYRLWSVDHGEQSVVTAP
Briefly: in vitro kinase inhibition (IC50); selectivity profiled by KiNativ, Ambit and radioactive filter binding panels. The test is classed as biochemical.

What is called IC50 is the concentration needed to halve the response being measured. As to `CCN1CCN(Cc2ccc(NC(=O)c3ccc(C)c(Oc4ccnc5[nH]ccc45)c3)cc2C(F)(F)F)CC1` [NG25], the IC50 amounted to 4 nM.

The values above are taken from paper PMC3377608, “The IkappaB Kinase Family Phosphorylates the Parkinson’s Disease Kinase LRRK2 at Ser935 and Ser910 during Toll-Like Receptor Signaling” (PLoS ONE, 2012).
